# Experimental data from patent publication US7939554B2, “Protein phosphatase inhibitors” (The Cleveland Clinic Foundation, priority 2006, dated 2011).
# What was measured:
# [1] = tested on: B16 melanoma tumors
# Description: Tumor volume (n=5) was measured during the study period and calculated using the formula for a prolate spheroid. Student's t test was used for assessing the significance of tumor volume differences among differential treatment groups. Mouse viability (daily) and body weights (weekly) were also recorded during the study period. Major internal organs of the mice were inspected visually upon their termination at the end of the experiment.
# To assess anti-tumor activity, C57BL/6J mice (˜8-week old, female, Taconic Farms, Germantown, N.Y.) were inoculated (s. c.) at the flanks with B16 melanoma cells (4×10^4 cells/site). […] Tumor volume (n=5) was measured during the study period and calculated using the formula for a prolate spheroid. Student's t test was used for assessing the significance of tumor volume differences among differential treatment groups. Mouse viability (daily) and body weights (weekly) were also recorded during the study period. Major internal organs of the mice were inspected visually upon their termination at the end of the experiment.
# [2] = tested on: mouse splenocytes; test: induction of IFNγ+ cells in mouse splenocytes in vitro (ELISPOT); type: cell-based
# Description: The splenocytes were cultured in RPMI 1640 medium supplemented with 10% FCS in the absence or presence of designated agents for 16 hrs in flat-bottom 96-well plates coated with a monoclonal antibody specific for mouse IFNγ (mouse IFNγ ELISPOT Kit, R & D System). The plates were then processed for in situ detection of IFNγ+ cells by ELISA following the manufacturer's procedure. Scanning and counting of IFNγ+ cells in the plates were accomplished using an automatic ELISPOT reader with Immunospot2 software (Cellular Technology Ltd). Mouse splenocytes were also untreated or treated with agents for 16 hrs in culture dishes and then stained with appropriate isotype control antibodies or FICT-labeled anti-CD3 monoclonal antibody (BD) plus PE-labeled monoclonal antibody (BD) for intracellular IFNγ following established procedures. The stained samples were washed 3 times, re-suspended in 200 μl of 1% para-formaldehyde solution and analyzed (20,000 cells/sample) using a BD FACS Caliburs cytometer and WinList software.
# The splenocytes were cultured in RPMI 1640 medium supplemented with 10% FCS in the absence or presence of designated agents for 16 hrs in flat-bottom 96-well plates coated with a monoclonal antibody specific for mouse IFNγ (mouse IFNγ ELISPOT Kit, R & D System). The plates were then processed for in situ detection of IFNγ+ cells by ELISA following the manufacturer's procedure. Scanning and counting of IFNγ+ cells in the plates were accomplished using an automatic ELISPOT reader with Immunospot2 software (Cellular Technology Ltd).
# [3] = tested on: human peripheral blood; test: induction of IFNγ+ cells in human peripheral blood in vitro (ELISPOT); type: cell-based
# Description: For induction of human primary IFNγ+ cells, heparinized peripheral blood samples were obtained by vein-puncture from healthy volunteers following an established protocol approved by the Institutional Review Board (IRB) of Cleveland Clinic. To mimic in vivo drug-exposure, human peripheral blood samples were directly treated with different agents without pre-separation of white blood cells from other blood components. Blood samples (0.1 ml/sample) were mixed with the agents, incubated at 37° C. for 4 hrs, diluted with 5 volumes of hypotonic solution (10 mM Tris, pH 7.4; 10 mM NaCl) to lyse RBC and centrifuged to pellet WBCs. The pellets were washed with hypotonic solution one time, re-suspended in RPMI 1640 medium (10% FCS) and used for ELISPOT assays (Human IFNγ ELISPOT Kit, R & D System) to quantify human IFNγα cells as outlined above.
# [4] = tested on: B16 melanoma cells; test: B16 melanoma cell growth in culture (MTT assay); type: cell-based, mouse; settings: doses up to 10 μg/ml, 5 days
# Description: Data represent mean±SD of triplicate samples. […] Tumor volumes were recorded as indicated. C, Athymic nude mice bearing 4-day-established B16 tumors were subjected to differential treatments as in B. Tumor volumes were recorded as indicated.
# L5, L6 and L6 analogs (Chembridge), mouse IFNγ ELISPOT Kit (R & D System) and antibody against pLck-pY394 or pERK1/2 (Cell Signaling) were purchased from commercial sources. Human Jurkat T cell line and murine B16 melanoma cell line (ATCC) and other cancer cell lines were maintained in […] culture medium supplemented with 10% fetal calf serum (FCS). The effects of chemical compounds on cancer cell growth in culture were quantified by MTT assays following our established procedures.
# [5] = tested on: B16 melanoma tumors; test: B16 melanoma tumor growth in athymic nude mice; type: in vivo, mouse; settings: 3 mg/kg/day, oral
# Description: To assess L5 anti-tumor activity, C57BL/6J mice or athymic nude mice (˜8-week old, female, Taconic Farms, Germantown, N.Y.) were inoculated (s.c.) at the flanks with B16 melanoma cells (4×10^4 cells/site). Four days post-inoculation, the mice were treated with PBS (Control) or L5 (˜3 mg/kg body weight/daily, Monday-Friday/week, oral gavage). Tumor volume (n=5) was measured during the study period and calculated using the formula for a prolate spheroid. Student's t test was used for assessing the significance of tumor volume differences among differential treatment groups. Mouse viability (daily) and body weights (weekly) were also recorded during the study period. Major internal organs of the mice were inspected visually upon their termination at the end of the experiment.
# [6] = toxicity in mice (viability); type: in vivo, mouse; settings: 10 mg/kg, daily, s.c., two weeks
# Description: FIG. 3 illustrates differential toxicity of L5 and L6. Jurkat cells were cultured in the absence or presence of lead compound #5 (L5) (A) or #6 (L6) (B) for 6 days prior to quantification of cell growth by MTT assays. Data represent mean±SD of triplicate samples. Balb/c mice were treated with L5 (˜10 mg/kg body weight, s. c., daily, M-F/wk) for two weeks to assess its toxicity in vivo (C).
# Spleens were harvested one hour post-treatment on day 4 and processed into splenocytes, which were used for assessing pLck levels by SDS-PAGE/Western blotting and for quantification of IFNγ+ cells by ELISPOT assays. Mice were also treated with L5 (˜10 mg/kg body weight, daily, s. c., n=2) to evaluate the toxicity of the compounds in vivo.
compound,measurement,setting,value
O=C1C=CC(=O)C(c2cc(Cl)ccc2Cl)=C1 [L5],B16 tumor growth inhibition versus control,"[1]; 1 mg/kg/daily, M-F/wk, oral, day 22",~9%
same,growth inhibition of B16 tumors versus control,"[1]; 3 mg/kg/day, oral, M-F/week, end of study",~83%
same,"tolerance of treated tumor mice (behavior, gross anatomy)","[1]; mouse, in vivo",no apparent abnormality
same,induction of IFNγ+ cells,"[2]; 0.001 μg/ml, 16 hrs",inactive
same,increase of IFNγ+ cells in splenocytes,"[2]; 1 μg/ml, 16 hrs",~14 fold
same,increase of IFNγ+ cells in splenocytes,"[2]; 3 μg/ml, 16 hrs",~26 fold
same,increase of IFNγ+ cells in splenocytes,"[2]; 10 μg/ml, 16 hrs",~17 fold
same,increase of IFNγ+ cells in splenocytes,"[2]; 30 μg/ml, 16 hrs",~10 fold
same,minimal effective dose for IFNγ+ cell induction,[2]; FIG. 11,10 ng/mL
same,induction of IFNγ+ cells,"[2]; low doses (0.01 to 1 μg/ml), same mouse, FIG. 16",3-4 fold
same,effectiveness relative to SSG in inducing IFNγ+ cells,"[2]; maximal induction at a comparable dose, mouse splenocytes",~58 fold
same,maximal induction of IFNγ+ cells in human peripheral blood,[3]; 8 μg/ml,20 fold
same,effectiveness relative to SSG in inducing IFNγ+ cells,"[3]; maximal induction at a comparable dose, human peripheral blood",~20 fold
same,direct toxicity against B16 cells in culture,[4],little direct toxicity
same,B16 tumor growth in T-cell-deficient mice,[5],not inhibited
same,mouse viability,[6],all alive
